US8268330B2 (priority 2007, dated 2012)

What was measured:
TNF-α = TNF-α production after exposure to iron chelators (L929-cytotoxicity assay); type: cell-based, human; guinea pig; conditions: following HIF-1α upregulation and nuclear translocation
Method: (§1) Alveolar macrophages were procured from naïve and BCG-vaccinated guinea pigs by lavage of the lungs in situ immediately following euthanasia. The isolated cells were subjected to Percoll gradient centrifugation (BO & Babiuk) to remove contaminating epithelial cells, neutrophils and erythrocytes. The cells were subsequently incubated overnight in chamber slides (Nunc) in RPMI medium with 10% fetal bovine serum (FBS) and antibiotics to allow the cells to adhere. THP-1 and HL60 cells, obtained from the ATCC (Rockville, Md.), were maintained in suspension in RPMI/10% FBS. The various cell types were washed thoroughly in Hank's balanced salt solution (HBSS) before incubation in HBSS without or with mycobactin or desferroxamine at various concentrations and for various length of time (see result section). At the end of the incubation time the spend media were collected and stored at −70° C. for later assay for IL-8 and TNF-α. The cells were then either spotted onto Teflon coated slides for immunolabelling for HIF-1α or HO-1 (see above) or were subjected to differential lysis to procure cytoplasmic and nuclear proteins, respectively. The protein samples were separated on 10% SDS-polyacrylamide gels and blotted onto nitrocellulose membranes. […]
(§2) TNF-α was quantitated using the L929-cytotoxicity assay and TGFβ1 assay was done by ELISA.

[1] = system: HIF-1α in THP-1 and HL-60 cells and guinea pig alveolar macrophages; test: Induction of HIF-1α in myelomonocytic cells and alveolar macrophages exposed to iron chelators in vitro; type: cell-based, human; guinea pig; conditions: for accumulation of cytoplasmic HIF-1α followed by nuclear translocation in a subset of the cells / concentration for HIF-1α induction effect (molar level): THP-1, HL-60 cells and guinea pig alveolar macrophages
TGFβ1 = TGFβ1 production after exposure to iron chelators (ELISA); type: cell-based, human; guinea pig; conditions: following HIF-1α upregulation and nuclear translocation
Method: as §1, §2

IL-8 = IL-8 secretion after exposure to iron chelators (ELISA); type: cell-based, human; guinea pig; conditions: following HIF-1α nuclear translocation; enhanced by PMA differentiation of the human cells
[2] = Iron binding capacity by the ferrozine method; type: physicochemical; conditions: for iron binding capacity: ferrozine method
Method: Iron saturated mycobactin J was purchased from Allied Monitor (Fayette, Mo.). Iron was removed and mycobactin purified by initially reconstituting the lyophilized solution of crude Fe^3+-mycobactin J complex in CHCl3 and 4N HCl. The suspension was stirred for 30 min. The water phase was separated and 4N HCl was added. After being stirred for 30 min, water phase was removed; this process was conducted three times to provide clear color solution. The CHCl3 phase was dried over Na2SO4, and concentrated in vacuo. Purification by SiO2 (CHCl3:MeOH=20:1) gave Fe^3+-free mycobactin J. The preparation was determined to be greater than 94% pure by NMR spectroscopy. Crude preparations of mycobactin J (50 mgs) yielded 9.8 mg following iron removal and purification. The iron binding capacity of iron saturated and Fe^3+-free preparations were determined by the ferrozine method (Eagle Diagnostics, Desoto, Tex.).

With CC(=O)N(O)CCCCCNC(=O)CCC(=O)N(O)CCCCCNC(=O)CCC(=O)N(O)CCCCCN [desferroxamine, reference compound] the “induction of TNF-α production” value (TNF-α) was “minimal”, the “accumulation of cytoplasmic HIF-1α followed by nuclear translocation in a subset of the cells” value [1] was “induced accumulation of cytoplasmic HIF-1α in a dose-dependent manner” and the “concentration for HIF-1α induction effect (molar level)” value [1] was 10 to 100 µM. The “induction of TGFβ1 production” value (TGFβ1) was “minimal” and the IL-8 secretion (IL-8) was “induction of IL-8 secretion”.

In the case of “Fe^3+-free mycobactin J [Fe^3+-free preparation]”, the iron binding capacity [2] is reported as 66.7 µmol/L.

“Fe^3+-mycobactin J complex [Fe^3+-saturated mycobactin]” gave an iron binding capacity [2] of 0 µmol/L.

For mycobactin J, the “iron binding capacity compared with desferrioxamine” value ([2]; compared on a molar equivalent) was “lower iron binding capacity than desferrioxamine”, the “induction of TNF-α production” value (TNF-α) was “minimal” and the “accumulation of cytoplasmic HIF-1α followed by nuclear translocation in a subset of the cells” value [1] was “induced accumulation of cytoplasmic HIF-1α in a dose-dependent manner”. The “concentration for HIF-1α induction effect (molar level)” value [1] was 1 to 5 µM, the “potency at inducing HIF-1α compared with desferrioxamine” value ([1]; THP-1 cells in vitro, molar equivalent) was “significantly more potent” and the “induction of TGFβ1 production” value (TGFβ1) was “minimal”. The IL-8 secretion (IL-8) was “induction of IL-8 secretion”.
